Test results from patent publication US20240139172A1, “PIPERIDINE UREA DERIVATIVES FOR CANCER THERAPY” (NeuroPn Therapeutics, Inc., priority 2022, published 2024).

Tested on: adult zebrafish
Test: Paclitaxel-induced peripheral neuropathy in adult zebrafish (number of stimuli until twitch)
Format: in vivo
Conditions: 3 μL of 10-μM paclitaxel solution for four consecutive days, FIG. 9
Procedure: Method to evaluate potential of compounds of Formula 1 to reduce or block chemotherapy-induced peripheral neuropathy—Animal (zebrafish) model described below and in literature (Lisse T S et al PNAS 113 (15) E2189-E2198) was used to evaluate potential of compounds of Formula 1 to reduce or block neuronal damage induced by chemotherapeutics.
To induce peripheral neuropathy in adult zebrafish, 3 μL of a 10-μM paclitaxel solution in 0.15% DMSO was administered with a 33 gauge Hamilton Syringe for a zebrafish with average ˜200 mg body weight. Fish were treated with vehicle alone or paclitaxel for four consecutive days (Days 2-5) or paclitaxel with Compound A (10- or 30 ng). Compound A was dosed orally by mixing with the fish feed pellets. Fishes were conditioned to consume three pellets a day. […] To prepare test compound infused pellet, a known quantity of the compound was mixed with the known quantity of the feed powder and were extruded in to 4 mg pellet containing the desired administration dose per pellet. Concentration of test compound dosed per fish were controlled by the number of pellets and the quantity of compound per pellet. […]
To determine the peripheral nerve damage, fish were wrapped in plastic foil until calm, and the distal tail fin was stimulated with an insect pin until twitching of the fish was observed. Number of stimuli until twitch was recorded.

SMILES: CC(=O)O[C@H]1C(=O)[C@@]2(C)[C@H]([C@H](OC(=O)c3ccccc3)[C@]3(O)C[C@H](OC(=O)[C@H](O)[C@@H](NC(=O)c4ccccc4)c4ccccc4)C(C)=C1C3(C)C)[C@]1(OC(C)=O)CO[C@@H]1C[C@@H]2O [paclitaxel]
- peripheral nerve damage (increase in number of stimuli needed) compared to vehicle alone: significant nerve damage
